Values quoted from earlier work in patent US20070003615A1, “Nanoparticulate clopidogrel and aspirin combination formulations” (Elan Pharma International Limited, priority 2005, published 2007).
Counter-ions that a name gives are not always drawn. Like-named read-outs stand apart in the source and are kept apart here.

Key:
[1] = dry air versus contact with moisture
[2] = not given; remark: listed apart in the source
[3] = in vivo

CC(=O)Oc1ccccc1C(=O)O [Aspirin, 2-acetoxybenzoic acid]
stability in air / moisture [1]: stable in dry air, but gradually hydrolyses in contact with moisture

COC(=O)[C@H](c1ccccc1Cl)N1CCc2sccc2C1 [Clopidogrel bisulfate, methyl (+)-(S)-α-(2-chorophenyl)-6,7-dihydrothieno[3,2-c]pyridine-5(4H)-acetate sulfate (1:1)]
solubility in ethyl ether (ethyl ether): practically insoluble
solubility in methanol (methanol): dissolves freely
solubility in methylene chloride (methylene chloride): dissolves sparingly
solubility at pH 1.0 (pH 1.0): freely soluble
solubility in water (water at neutral pH): practically insoluble
rate of combined end point of cardiovascular death, MI, or stroke (and with refractory ischemia) ([2]; patients with acute coronary syndrome): decrease the rate
rate of combined end point of new ischemic stroke, new MI, and other vascular death ([2]; recent MI, recent stroke, or established arterial disease): reduce the rate
gastric irritation (esophagus and stomach) [3]: significant gastric irritation

COC(=O)[C@H](c1ccccc1Cl)N1CCc2sccc2C1 [clopidogrel]
solubility in water (water, pH not stated): practically insoluble
